Assays:
Serine protease 1 = Serine protease 1 (Homo sapiens, UniProt P07477); assay: Inhibition of trypsin
Prothrombin = Prothrombin (Homo sapiens, UniProt P00734); assay: Inhibition of thrombin; parameters: species or system Oryctolagus cuniculus
[1] = In vitro inhibitory concentration expressed as thrombin time of the compound; format: functional

Serine protease 1, sequence (P07477 whole entry): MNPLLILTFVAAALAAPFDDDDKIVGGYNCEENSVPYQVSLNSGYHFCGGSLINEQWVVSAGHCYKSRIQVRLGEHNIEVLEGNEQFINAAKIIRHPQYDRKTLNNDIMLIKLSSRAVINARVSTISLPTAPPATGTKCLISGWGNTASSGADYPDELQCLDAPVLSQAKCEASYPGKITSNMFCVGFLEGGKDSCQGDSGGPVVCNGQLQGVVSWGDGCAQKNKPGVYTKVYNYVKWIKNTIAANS

Row | SMILES | Ki (Serine protease 1) [nM] | Ki (Prothrombin) [nM] | IC50 [1] [nM]
1 | CC1(C)C2CC1[C@]1(C)OB([C@H](CCCN=C(N)N)NC(=O)c3ccc(-c4ccccc4)c([N+](=O)[O-])c3)O[C@@H]1C2 (some centres not stated) | 4.8 | 4.9 | –
2 | N=C(N)NCCC[C@H](NC(=O)c1ccc(-c2ccccc2)cc1)B(O)O | – | 1.7 | –
3 | CC1(C)C2CC1[C@]1(C)OB([C@H](CCCN=C(N)N)NC(=O)c3ccc(-c4ccccc4)cc3)O[C@@H]1C2 (some centres not stated) | 33 | 0.94 | –
4 | CC(C)(C)OC(=O)Nc1cccc(-c2ccc(C(=O)N[C@@H](CCCNC(=N)N)B3O[C@@H]4CC5CC(C5(C)C)[C@]4(C)O3)s2)c1 (some centres not stated) | 13 | 42 | –
5 | COC(=O)NS(=O)(=O)c1ccccc1-c1ccc(C(=O)N[C@@H](CCCN=C(N)N)B2O[C@@H]3CC4CC(C4(C)C)[C@]3(C)O2)c(C)c1 (some centres not stated) | 0.64 | 1.1 | 225
6 | Cc1nc(-c2ccccc2)ccc1C(=O)N[C@@H](CCCCN)B1O[C@@H]2CC3CC(C3(C)C)[C@]2(C)O1 (some centres not stated) | – | 580 | –
7 | CC1(C)C2CC1[C@]1(C)OB([C@H](CCCN=C(N)N)NC(=O)c3ccc(-c4ccccc4)c(N)c3)O[C@@H]1C2 (some centres not stated) | 4.7 | 5.5 | –
8 | Cc1cc(-c2ccccc2)ccc1C(=O)N[C@@H](CCCN=C(N)N)B1O[C@@H]2CC3CC(C3(C)C)[C@]2(C)O1 (some centres not stated) | 4.2 | 0.42 | 600
9 | Cc1nc(-c2ccccc2)ncc1C(=O)N[C@@H](CCCCN)B1O[C@@H]2CC3CC(C3(C)C)[C@]2(C)O1 (some centres not stated) | – | 410 | –
10 | CCN(CC)S(=O)(=O)c1ccccc1-c1ccc(C(=O)N[C@@H](CCCNC(=N)N)B2O[C@@H]3CC4CC(C4(C)C)[C@]3(C)O2)c(C)c1 (some centres not stated) | 0.62 | 0.36 | –
11 | CC1(C)C2CC1[C@]1(C)OB([C@H](CCCNC(=N)N)NC(=O)c3cccc(-c4ccccc4)c3)O[C@@H]1C2 (some centres not stated) | 7.4 | 110 | –
12 | CC(=O)N[C@H](Cc1ccccc1)C(=O)N1CCC[C@H]1C(=O)N[C@@H](CCCN=C(N)N)B(O)O | – | – | 55
13 | Cc1nc(-c2ccccc2)ncc1C(=O)N[C@@H](CCCN=C(N)N)B1O[C@@H]2CC3CC(C3(C)C)[C@]2(C)O1 (some centres not stated) | – | 10 | –
14 | CC(C)(C)OC(=O)Nc1cccc(-c2cccc(C(=O)N[C@@H](CCCN=C(N)N)B3O[C@@H]4CC5CC(C5(C)C)[C@]4(C)O3)c2)c1 (some centres not stated) | 35 | 8.3 | –
15 | CC1(C)C2CC1[C@]1(C)OB([C@H](CCCN=C(N)N)NC(=O)c3ccc(-c4ccccc4)cc3F)O[C@@H]1C2 (some centres not stated) | – | 1.2 | –
16 | CC1(C)C2CC1[C@]1(C)OB([C@H](CCCN=C(N)N)NC(=O)c3ccc(-c4ccccc4)cc3N)O[C@@H]1C2 (some centres not stated) | 5.3 | 1.3 | –
17 | CC1(C)C2CC1[C@]1(C)OB([C@H](CCCN=C(N)N)NC(=O)c3ccc(-c4ccccc4)cc3[N+](=O)[O-])O[C@@H]1C2 (some centres not stated) | – | 4.7 | –
18 | CC(C)(C)OC(=O)Nc1cccc(-c2ccc(C(=O)N[C@@H](CCCN=C(N)N)B3O[C@@H]4CC5CC(C5(C)C)[C@]4(C)O3)o2)c1 (some centres not stated) | 25 | 30 | –
19 | CC1(C)C2CC1[C@]1(C)OB([C@H](CCCNC(=N)N)NC(=O)c3ccc(-c4ccccc4)o3)O[C@@H]1C2 (some centres not stated) | – | 137 | –
20 | CC1(C)C2CC1[C@]1(C)OB([C@H](CCCNC(=N)N)NC(=O)c3ccc(-c4ccncc4)cc3)O[C@@H]1C2 (some centres not stated) | – | 19 | –
21 | Cc1cc(-c2ccccc2S(=O)(=O)NC(C)(C)C)ccc1C(=O)N[C@@H](CCCN=C(N)N)B1O[C@@H]2CC3CC(C3(C)C)[C@]2(C)O1 (some centres not stated) | 0.7 | 0.21 | 140
22 | Cc1cc(-c2ccccc2C(F)(F)F)ccc1C(=O)N[C@@H](CCCN=C(N)N)B1O[C@@H]2CC3CC(C3(C)C)[C@]2(C)O1 (some centres not stated) | 3.1 | 0.46 | –
23 | Cc1cc(-c2ccccc2S(N)(=O)=O)ccc1C(=O)N[C@@H](CCCN=C(N)N)B1O[C@@H]2CC3CC(C3(C)C)[C@]2(C)O1 (some centres not stated) | 0.11 | 0.92 | 110
24 | CC1(C)OB([C@H](CCCNC(=N)N)NC(=O)c2ccccc2)OC1(C)C | 70 | 512 | –
25 | Cc1cc(-c2ccccc2)ccc1C(=O)N[C@@H](CCCCN)B1O[C@@H]2CC3CC(C3(C)C)[C@]2(C)O1 (some centres not stated) | – | 26 | –
26 | CC1(C)C2CC1[C@]1(C)OB([C@H](CCCNC(=N)N)NC(=O)c3cccc(-c4cccc(NS(C)(=O)=O)c4)c3)O[C@@H]1C2 (some centres not stated) | 3.8 | 3.5 | –
27 | CC1(C)C2CC1[C@]1(C)OB([C@H](CCCN=C(N)N)NC(=O)Cc3ccc(-c4ccccc4)cc3)O[C@@H]1C2 (some centres not stated) | – | 6.9 | –

— ChEMBL document CHEMBL1151536, “Biaryl substituted alkylboronate esters as thrombin inhibitors” (Bioorg Med Chem Lett, 1997)
